Like-named read-outs stand apart in the source and are kept apart here.

Assay [1] addresses NET (Rattus norvegicus, UniProt Q63380). Kind of assay: NET-mediated release of [3H]MPP+ from rat brain synaptosomes. In kind it is biochemical. Particulars: read-out: NET-mediated release Emax.
Assay [2] deals with 5-HT1B (Homo sapiens, UniProt P28222). The experiment in a line: Radioligand binding.
Assay [3] addresses 5-HT1D (Homo sapiens, UniProt P28221). Kind of assay: Radioligand binding.
Assay [4] concerns the target 5-HT2A (Homo sapiens, UniProt P28223). Kind of assay: Radioligand binding.
The target of assay [5] is T1, 5-HT2C (Homo sapiens, UniProt P28335).
T1 sequence (P28335 33-458): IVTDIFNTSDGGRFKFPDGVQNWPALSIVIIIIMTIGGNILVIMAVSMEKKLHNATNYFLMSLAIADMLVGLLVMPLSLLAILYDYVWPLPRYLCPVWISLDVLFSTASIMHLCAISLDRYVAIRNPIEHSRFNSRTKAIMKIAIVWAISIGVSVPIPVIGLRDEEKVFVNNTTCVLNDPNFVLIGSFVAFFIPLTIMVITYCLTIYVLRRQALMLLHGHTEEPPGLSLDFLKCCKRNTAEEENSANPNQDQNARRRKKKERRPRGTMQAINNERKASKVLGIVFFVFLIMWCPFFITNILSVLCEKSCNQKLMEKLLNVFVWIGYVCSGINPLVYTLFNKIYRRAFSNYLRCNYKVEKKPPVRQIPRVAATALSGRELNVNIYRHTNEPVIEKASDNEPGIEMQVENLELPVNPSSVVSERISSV
The experiment in a line: Radioligand binding.

Assay [6] has as its target 5-HT6 (Homo sapiens, UniProt P50406). The experiment in a line: Radioligand binding.
For assay [7], the target named is 5-HT7 (Homo sapiens, UniProt P34969). Kind of assay: Radioligand binding.
In assay [8] the target is T2, α1B (Homo sapiens, UniProt P35368).
T2 sequence (P35368 1-520): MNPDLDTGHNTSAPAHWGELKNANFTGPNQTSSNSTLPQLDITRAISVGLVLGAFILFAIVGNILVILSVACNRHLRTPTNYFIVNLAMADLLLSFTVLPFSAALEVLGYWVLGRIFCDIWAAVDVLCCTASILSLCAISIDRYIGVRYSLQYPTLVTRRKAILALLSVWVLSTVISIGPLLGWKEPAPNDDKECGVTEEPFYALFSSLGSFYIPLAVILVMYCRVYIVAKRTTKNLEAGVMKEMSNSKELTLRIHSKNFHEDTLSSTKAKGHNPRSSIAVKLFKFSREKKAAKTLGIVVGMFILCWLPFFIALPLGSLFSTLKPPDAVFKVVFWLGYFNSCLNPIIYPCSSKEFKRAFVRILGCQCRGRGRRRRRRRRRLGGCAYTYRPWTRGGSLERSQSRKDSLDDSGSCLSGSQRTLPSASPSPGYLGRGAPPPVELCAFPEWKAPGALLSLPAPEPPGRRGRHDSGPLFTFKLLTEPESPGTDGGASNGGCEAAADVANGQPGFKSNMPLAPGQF
Kind of assay: Radioligand binding.

Assay [9] concerns the target T3, α2B (Homo sapiens, UniProt P18089).
T3 sequence (P18089 1-450): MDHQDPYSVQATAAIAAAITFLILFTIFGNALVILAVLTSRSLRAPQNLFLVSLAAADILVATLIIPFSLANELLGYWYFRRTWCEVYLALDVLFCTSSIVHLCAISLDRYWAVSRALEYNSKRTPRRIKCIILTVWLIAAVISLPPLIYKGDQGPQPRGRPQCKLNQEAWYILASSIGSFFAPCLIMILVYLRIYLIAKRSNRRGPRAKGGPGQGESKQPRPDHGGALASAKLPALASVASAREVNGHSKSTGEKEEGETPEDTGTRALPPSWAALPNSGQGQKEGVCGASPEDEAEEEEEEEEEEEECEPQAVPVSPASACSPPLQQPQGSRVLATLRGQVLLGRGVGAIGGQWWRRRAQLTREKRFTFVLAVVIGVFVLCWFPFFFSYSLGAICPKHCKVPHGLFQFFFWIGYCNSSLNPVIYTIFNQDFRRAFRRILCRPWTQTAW
The experiment in a line: Radioligand binding. Particulars: for fold lower affinity for α2B compared to 2-AI: binding, [3H]rauwolscine.

Assay [10] concerns the target β2 (Homo sapiens, UniProt P07550). The experiment in a line: Radioligand binding.
Assay [11] concerns the target β3 (Homo sapiens, UniProt P13945). The experiment in a line: Radioligand binding.
The target of assay [12] is D2 (Homo sapiens, UniProt P14416). The experiment in a line: Radioligand binding.
D2, sequence (P14416 whole entry): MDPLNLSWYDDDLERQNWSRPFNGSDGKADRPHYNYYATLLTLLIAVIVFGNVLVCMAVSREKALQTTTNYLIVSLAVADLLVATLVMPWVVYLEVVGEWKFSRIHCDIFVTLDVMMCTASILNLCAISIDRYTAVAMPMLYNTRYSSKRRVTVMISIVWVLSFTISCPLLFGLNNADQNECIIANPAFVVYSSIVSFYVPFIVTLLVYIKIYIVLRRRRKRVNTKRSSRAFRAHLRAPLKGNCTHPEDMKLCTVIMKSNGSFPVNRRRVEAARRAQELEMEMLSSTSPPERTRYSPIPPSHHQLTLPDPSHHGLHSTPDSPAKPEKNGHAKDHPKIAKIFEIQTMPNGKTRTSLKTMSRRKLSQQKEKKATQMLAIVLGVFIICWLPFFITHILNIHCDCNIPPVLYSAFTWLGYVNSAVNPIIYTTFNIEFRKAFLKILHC
The target in assay [13] is D3 (Homo sapiens, UniProt P35462). Kind of assay: Radioligand binding.
D3, sequence (P35462 whole entry): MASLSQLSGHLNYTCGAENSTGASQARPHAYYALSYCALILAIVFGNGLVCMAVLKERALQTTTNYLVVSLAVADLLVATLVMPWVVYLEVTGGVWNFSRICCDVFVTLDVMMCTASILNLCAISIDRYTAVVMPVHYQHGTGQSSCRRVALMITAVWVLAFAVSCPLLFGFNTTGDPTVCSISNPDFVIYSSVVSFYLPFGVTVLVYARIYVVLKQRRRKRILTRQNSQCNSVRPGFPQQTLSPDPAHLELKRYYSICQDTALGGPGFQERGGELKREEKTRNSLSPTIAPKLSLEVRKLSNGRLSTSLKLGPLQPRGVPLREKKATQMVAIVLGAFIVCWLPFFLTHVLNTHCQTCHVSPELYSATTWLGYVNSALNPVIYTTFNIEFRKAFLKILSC
For assay [14], the target named is T4, D4 (Homo sapiens, UniProt P21917).
T4 sequence (P21917 1-419): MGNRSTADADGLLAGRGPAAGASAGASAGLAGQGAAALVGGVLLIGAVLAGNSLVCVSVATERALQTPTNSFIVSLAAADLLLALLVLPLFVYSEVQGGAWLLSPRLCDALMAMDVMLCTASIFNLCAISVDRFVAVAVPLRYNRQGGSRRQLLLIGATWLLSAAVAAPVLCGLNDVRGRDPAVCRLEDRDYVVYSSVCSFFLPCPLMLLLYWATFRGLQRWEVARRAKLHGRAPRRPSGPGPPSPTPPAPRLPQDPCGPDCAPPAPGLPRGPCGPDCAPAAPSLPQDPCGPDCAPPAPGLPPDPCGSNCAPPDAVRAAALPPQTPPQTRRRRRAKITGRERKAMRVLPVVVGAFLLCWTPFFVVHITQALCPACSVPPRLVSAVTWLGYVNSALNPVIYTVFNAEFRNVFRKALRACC
Kind of assay: Radioligand binding.

Assay [15] deals with D5 (Homo sapiens, UniProt P21918). Kind of assay: Radioligand binding.
D5, sequence (P21918 whole entry): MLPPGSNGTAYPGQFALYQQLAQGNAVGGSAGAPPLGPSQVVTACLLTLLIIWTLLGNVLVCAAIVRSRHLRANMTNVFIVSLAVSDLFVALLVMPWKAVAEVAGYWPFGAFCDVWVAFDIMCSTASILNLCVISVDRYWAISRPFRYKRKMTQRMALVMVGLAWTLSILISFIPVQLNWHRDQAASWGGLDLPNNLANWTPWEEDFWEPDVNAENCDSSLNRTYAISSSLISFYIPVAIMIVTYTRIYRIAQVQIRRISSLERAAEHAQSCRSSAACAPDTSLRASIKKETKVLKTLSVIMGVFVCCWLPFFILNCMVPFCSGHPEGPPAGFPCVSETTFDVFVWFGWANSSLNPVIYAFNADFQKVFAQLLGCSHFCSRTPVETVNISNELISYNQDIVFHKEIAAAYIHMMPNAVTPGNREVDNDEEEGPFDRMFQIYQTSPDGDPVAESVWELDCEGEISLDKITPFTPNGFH
In assay [16] the target is SERT (Homo sapiens, UniProt P31645). The experiment in a line: Radioligand binding.
SERT, sequence (P31645 whole entry): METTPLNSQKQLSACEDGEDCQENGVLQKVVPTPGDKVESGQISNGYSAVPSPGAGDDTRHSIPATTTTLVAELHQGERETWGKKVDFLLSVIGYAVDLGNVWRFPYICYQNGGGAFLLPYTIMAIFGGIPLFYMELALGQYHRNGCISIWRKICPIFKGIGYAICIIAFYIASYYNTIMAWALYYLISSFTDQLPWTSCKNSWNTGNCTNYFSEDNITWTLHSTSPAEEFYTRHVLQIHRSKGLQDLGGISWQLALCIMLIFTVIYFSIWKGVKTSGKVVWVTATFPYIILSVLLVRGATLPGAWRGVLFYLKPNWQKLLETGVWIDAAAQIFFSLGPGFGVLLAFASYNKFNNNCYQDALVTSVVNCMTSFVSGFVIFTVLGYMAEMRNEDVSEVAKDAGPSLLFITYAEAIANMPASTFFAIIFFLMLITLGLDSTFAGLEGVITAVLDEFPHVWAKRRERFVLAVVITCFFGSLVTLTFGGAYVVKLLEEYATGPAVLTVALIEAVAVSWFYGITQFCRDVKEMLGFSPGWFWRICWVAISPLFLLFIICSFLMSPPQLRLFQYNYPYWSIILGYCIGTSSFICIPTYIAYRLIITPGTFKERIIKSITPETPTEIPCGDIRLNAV
Assay [17] has as its system rats. As to conditions: drug discrimination, cited from earlier work.
The mark [18] stands for this setting: ref Oberlender and Nichols, 1991.

5-HT2A, sequence (P28223 whole entry): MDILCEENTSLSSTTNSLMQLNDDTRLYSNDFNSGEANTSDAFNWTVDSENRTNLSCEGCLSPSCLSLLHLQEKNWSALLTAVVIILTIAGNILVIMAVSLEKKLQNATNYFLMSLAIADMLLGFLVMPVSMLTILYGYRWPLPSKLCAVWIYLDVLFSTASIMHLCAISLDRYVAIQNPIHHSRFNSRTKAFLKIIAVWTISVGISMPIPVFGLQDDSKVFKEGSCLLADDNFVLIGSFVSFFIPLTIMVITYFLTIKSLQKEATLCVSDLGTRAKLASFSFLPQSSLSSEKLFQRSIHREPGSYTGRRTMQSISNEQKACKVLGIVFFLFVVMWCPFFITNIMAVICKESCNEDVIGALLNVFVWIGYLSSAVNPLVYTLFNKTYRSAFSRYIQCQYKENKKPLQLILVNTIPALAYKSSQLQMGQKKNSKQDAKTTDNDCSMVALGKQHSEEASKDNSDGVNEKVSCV
5-HT1B, sequence (P28222 whole entry): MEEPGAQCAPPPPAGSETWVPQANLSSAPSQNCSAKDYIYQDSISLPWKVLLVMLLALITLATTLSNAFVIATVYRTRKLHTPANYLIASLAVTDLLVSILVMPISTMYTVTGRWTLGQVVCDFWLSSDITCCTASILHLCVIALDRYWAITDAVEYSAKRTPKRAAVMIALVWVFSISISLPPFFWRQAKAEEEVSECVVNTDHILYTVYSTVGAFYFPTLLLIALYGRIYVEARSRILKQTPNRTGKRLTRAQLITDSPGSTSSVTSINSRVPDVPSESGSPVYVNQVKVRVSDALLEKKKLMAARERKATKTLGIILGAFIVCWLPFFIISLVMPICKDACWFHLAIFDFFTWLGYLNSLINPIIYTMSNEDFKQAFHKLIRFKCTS
β2, sequence (P07550 whole entry): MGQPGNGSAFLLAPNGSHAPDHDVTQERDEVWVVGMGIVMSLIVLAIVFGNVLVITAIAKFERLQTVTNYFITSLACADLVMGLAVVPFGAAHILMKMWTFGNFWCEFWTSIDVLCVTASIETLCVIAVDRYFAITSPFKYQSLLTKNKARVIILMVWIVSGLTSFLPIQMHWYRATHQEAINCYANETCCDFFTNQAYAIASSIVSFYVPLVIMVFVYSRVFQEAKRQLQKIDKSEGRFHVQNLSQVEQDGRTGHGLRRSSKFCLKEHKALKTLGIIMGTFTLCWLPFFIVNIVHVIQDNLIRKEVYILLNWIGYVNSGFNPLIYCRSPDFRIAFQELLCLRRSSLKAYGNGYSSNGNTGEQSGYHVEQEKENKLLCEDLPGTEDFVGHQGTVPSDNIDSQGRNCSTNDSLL
β3, sequence (P13945 whole entry): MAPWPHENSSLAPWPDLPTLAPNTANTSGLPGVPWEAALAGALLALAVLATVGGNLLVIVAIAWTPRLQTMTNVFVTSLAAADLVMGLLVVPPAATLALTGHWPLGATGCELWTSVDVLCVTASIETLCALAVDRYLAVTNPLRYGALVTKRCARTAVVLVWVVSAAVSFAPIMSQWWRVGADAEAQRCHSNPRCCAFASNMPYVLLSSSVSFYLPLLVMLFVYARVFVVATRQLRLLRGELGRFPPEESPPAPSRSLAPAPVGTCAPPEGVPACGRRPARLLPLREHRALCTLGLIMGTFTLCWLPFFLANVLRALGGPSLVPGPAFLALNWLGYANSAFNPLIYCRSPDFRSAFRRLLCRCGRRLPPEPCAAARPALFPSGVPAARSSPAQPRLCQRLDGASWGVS
5-HT1D, sequence (P28221 whole entry): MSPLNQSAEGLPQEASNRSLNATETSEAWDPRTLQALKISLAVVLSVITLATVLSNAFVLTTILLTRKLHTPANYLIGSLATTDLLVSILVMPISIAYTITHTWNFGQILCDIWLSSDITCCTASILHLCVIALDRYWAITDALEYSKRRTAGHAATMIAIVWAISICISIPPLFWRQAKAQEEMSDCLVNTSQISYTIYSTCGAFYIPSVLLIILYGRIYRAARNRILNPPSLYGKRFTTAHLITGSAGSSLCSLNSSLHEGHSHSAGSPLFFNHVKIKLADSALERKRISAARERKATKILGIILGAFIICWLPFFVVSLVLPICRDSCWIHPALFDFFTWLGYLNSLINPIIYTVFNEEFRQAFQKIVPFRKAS
NET, sequence (Q63380 1-617): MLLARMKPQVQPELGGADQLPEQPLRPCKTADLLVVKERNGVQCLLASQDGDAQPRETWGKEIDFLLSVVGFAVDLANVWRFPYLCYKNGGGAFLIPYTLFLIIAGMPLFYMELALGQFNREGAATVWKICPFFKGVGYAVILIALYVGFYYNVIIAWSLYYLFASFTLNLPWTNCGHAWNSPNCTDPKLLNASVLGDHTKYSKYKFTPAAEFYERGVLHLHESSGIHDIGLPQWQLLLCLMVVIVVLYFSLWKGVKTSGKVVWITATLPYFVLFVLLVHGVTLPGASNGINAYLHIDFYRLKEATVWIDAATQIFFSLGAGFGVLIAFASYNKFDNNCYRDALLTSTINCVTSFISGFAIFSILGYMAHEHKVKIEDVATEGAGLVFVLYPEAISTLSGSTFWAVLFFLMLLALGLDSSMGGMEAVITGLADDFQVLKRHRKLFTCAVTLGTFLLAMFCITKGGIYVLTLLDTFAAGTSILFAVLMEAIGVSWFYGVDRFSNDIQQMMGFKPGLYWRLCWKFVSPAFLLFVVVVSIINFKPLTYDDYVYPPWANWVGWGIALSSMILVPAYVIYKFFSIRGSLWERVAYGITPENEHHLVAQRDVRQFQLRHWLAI

As for `COc1ccc2c(c1)CC(N)C2` (centres unmarked) [5-MeO-AI, 5-methoxy-2-aminoindan], in assay [1], the Emax – broadly, the greatest response seen or fitted, relative to the assay's reference – was 101%. Further, the Ki in [2], in assay [3], in assay [4], in [5], in assay [6] and in [7] was over 10 µM each time. In addition, the Ki (usually a dissociation constant, usually derived from enzyme kinetics or from competition with a known ligand) in [8] is over 10 µM; in [9] it was 1.55 µM; in assay [10] it was over 10 µM; in assay [11], over 10 µM; in [12], over 10 µM; in assay [13], over 10 µM. Further, the Ki in assay [14], in assay [15] and in [16] was over 10 µM each time. The “fold lower affinity for α2B compared to 2-AI” value in assay [9] worked out at 5 fold.
`COc1cc2c(cc1C)CC(N)C2` (centres unmarked) [MMAI, 5-methoxy-6-methyl-2-aminoindan]: the Emax in [1] is 105%. Besides, the Ki is 2.78 µM in [2]; 2.56 µM in assay [3]; over 10 µM in [4]; over 10 µM in [5]; over 10 µM in assay [6]; 1.01 µM in assay [7]. For the same molecule, the Ki was over 10 µM in [8]; 1.23 µM in [9]; over 10 µM in assay [10]; over 10 µM in [11]; over 10 µM in assay [12]; over 10 µM in assay [13]. The Ki in assay [14] was over 10 µM; in assay [15], over 10 µM; in [16] it was 4.82 µM. The “fold lower affinity for α2B compared to 2-AI” value in [9] is 5 fold. For the same molecule, the “substitution in (+)-amphetamine-trained rats” value in [17] (ref Johnson et al. 1991b) is given as “did not substitute”. Besides, in [17] (ref Johnson et al. 1991b), the “substitution in rats trained to discriminate MDMA and S-(+)-MBDB” value was “fully substituted”.
As for `NC1Cc2ccccc2C1` [2-AI, 2-aminoindan], the Emax in assay [1] was 95%. The Ki in assay [2], in [3], in assay [4], in assay [5], in assay [6] and in assay [7] was over 10 µM throughout. The Ki was over 10 µM in assay [8]; 0.211 ± 0.081 µM in [9]; over 10 µM in assay [10]; over 10 µM in assay [11]; over 10 µM in assay [12]; over 10 µM in assay [13]. The Ki in assay [14], in [15] and in assay [16] was over 10 µM in each case. The “substitution for (+)-amphetamine” value in assay [17] (ref Glennon et al. 1984) was “fully substituted”. Moreover, the “substitution in (+)-amphetamine-trained rats” value in [17] (setting [18]) is “partial substitution”.
Take `NC1Cc2cc3c(cc2C1)OCO3` [MDAI, 5,6-methylenedioxy-2-aminoindan]: in assay [1], the Emax was 99%. Further, the Ki in [2], in assay [3], in assay [4], in assay [5], in assay [6] and in assay [7] was over 10 µM throughout. Besides, the Ki in assay [8] was over 10 µM; in assay [9], 1.12 µM; in [10], over 10 µM; in assay [11] it was over 10 µM; in [12], over 10 µM; in [13] it was over 10 µM. Also, the Ki in [14], in [15] and in assay [16] was over 10 µM throughout. In [17] (ref Gatch et al. 2016), the “drug-appropriate responding in (+)-methamphetamine-trained rats” value is reported as 75%. Moreover, the “substitution in cocaine-trained rats” value in assay [17] (ref Gatch et al. 2016) was “full substitution”. Besides, in assay [17] (ref Nichols et al. 1990, Oberlender and Nichols 1990, Malmusi et al. 1996, Gatch et al. 2016), the “substitution for MDMA and S-(+)-MBDB” value is on record as “substituted”. Moreover, in assay [17] (setting [18]), the “substitution in (+)-amphetamine-trained rats” value is “did not substitute”.

The values are drawn from article PMC6848746 (Psychopharmacology, 2019).
